Values joined by “and” are separate entries in the source; they are usually repeats but may differ in a detail not shown here. Identical values can stand only once.
Assay: xn = mol fraction of the nth substance listed

CCO + CCOP(=O)([O-])OCC.CC[N+]1(C)CCCC1
100 kPa, x2 = 0
Details | viscosity [mPa·s]
293.15 K | 1.18
298.15 K | 1.11
303.15 K | 0.98
308.15 K | 0.89
313.15 K | 0.82
318.15 K | 0.75
323.15 K | 0.69
328.15 K | 0.65
333.15 K | 0.6
338.15 K | 0.56

CCO + CCOP(=O)([O-])OCC.CC[N+]1(C)CCOCC1
100 kPa, x2 = 0
Details | viscosity [mPa·s]
293.15 K | 1.18
298.15 K | 1.11
303.15 K | 0.98
308.15 K | 0.89
313.15 K | 0.82
318.15 K | 0.75
323.15 K | 0.69
328.15 K | 0.65
333.15 K | 0.6
338.15 K | 0.56

CCO + CCOP(=O)([O-])OCC.CC[n+]1ccn(C)c1
Details | viscosity [mPa·s]
318.15 K, 100 kPa, x2 = 0 | 0.75

CCO + CC[N+]1(C)CCCC1.COP(=O)([O-])OC
100 kPa, x2 = 0
Details | viscosity [mPa·s]
308.15 K | 0.9
318.15 K | 0.75
328.15 K | 0.63
333.15 K | 0.58

CCO + CC[n+]1ccccc1.N#C[N-]C#N
Details | viscosity [mPa·s]
288.15 K, 100 kPa, x1 = 1 | 1.29

CCO + CC[n+]1ccn(C)c1.COP(=O)([O-])OC
100 kPa, x2 = 0
Details | viscosity [mPa·s]
298.15 K | 1.08
328.15 K | 0.646

CCO + CC[n+]1ccn(C)c1.COS(=O)(=O)[O-]
101 kPa, x2 = 0
Details | viscosity [mPa·s]
283.15 K | 1.44
293.15 K | 1.18
303.15 K | 0.98
313.15 K | 0.83
323.15 K | 0.7

CC[n+]1ccn(C)c1.O=C([O-])[C@@H]1CCCN1 + CC[n+]1ccn(C)c1.N#C[C-](C#N)C#N
Details | viscosity [mPa·s]
298.15 K, 101 kPa, x2 = 0 | 1195

CCO + CC[n+]1ccn(C)c1.N#C[N-]C#N
viscosity [mPa·s]
Details | 298.15 K | 303.15 K | 308.15 K | 313.15 K | 318.15 K | 323.15 K | 328.15 K
100 kPa, x2 = 0 | 1.11 | 1.02 | 0.93 | 0.85 | 0.78 | 0.71 | –
101 kPa, x1 = 1 | – | – | – | 0.83 | – | – | 0.64

CCCCn1cc[n+](CCOCCOCCOCC[n+]2ccn(CCCC)c2)c1.N#C[N-]C#N.N#C[N-]C#N + CC[n+]1ccn(C)c1.N#C[N-]C#N + O=S(=O)([N-]S(=O)(=O)C(F)(F)F)C(F)(F)F.[Li+]
100 kPa, x1 = 0.2237, x2 = 0.6826
Details | electrical conductivity [S/m]
298 K | 0.491
303 K | 0.589
313 K | 0.812
323 K | 1.1
333 K | 1.42
343 K | 1.79

CC[S+](CC)CCOCCOCCOCCOCC[S+](CC)CC.N#C[N-]C#N.N#C[N-]C#N + CC[n+]1ccn(C)c1.N#C[N-]C#N + O=S(=O)([N-]S(=O)(=O)C(F)(F)F)C(F)(F)F.[Li+]
100 kPa, x1 = 0.2317, x2 = 0.6756
Details | electrical conductivity [S/m]
298 K | 0.811
303 K | 1.16
313 K | 1.35
323 K | 1.51
333 K | 1.93
343 K | 2.26

CC[S+](CC)CCOCC[S+](CC)CC.N#C[N-]C#N.N#C[N-]C#N + CC[n+]1ccn(C)c1.N#C[N-]C#N + O=S(=O)([N-]S(=O)(=O)C(F)(F)F)C(F)(F)F.[Li+]
100 kPa, x1 = 0.2884, x2 = 0.6258
Details | electrical conductivity [S/m]
298 K | 0.519
303 K | 0.632
313 K | 0.863
323 K | 1.17
333 K | 1.54
343 K | 1.95

CCO + CC[n+]1ccn(C)c1.N#C[S-]
101 kPa, x2 = 0
Details | viscosity [mPa·s]
293.15 K | 1.18
303.15 K | 0.98

Cc1ncc[nH]1 + CC[n+]1ccn(C)c1.[Cl-]
101.33 kPa, x2 = 0.667
Details | viscosity [mPa·s]
303.15 K | 394
313.15 K | 182.1
323.15 K | 101.5
333.15 K | 57.3
343.15 K | 38
353.15 K | 27

CCO + CC[n+]1ccn(C)c1.[I-]
Details | electrical conductivity [S/m]
298.15 K, 100 kPa, x2 = 0 | 5.54e-05

CCO + CC[n+]1ccn(CCOC)c1.N#C[S-]
Details | viscosity [mPa·s]
308.15 K, 100 kPa, x2 = 0 | 0.902

CCO + CC[n+]1ccn(CCOC)c1.O=S(=O)([N-]S(=O)(=O)C(F)(F)F)C(F)(F)F
100 kPa, x2 = 0
Details | viscosity [mPa·s]
288.15 K | 1.334
293.15 K | 1.202
298.15 K | 1.111
303.15 K | 1.003
308.15 K | 0.907
313.15 K | 0.83
318.15 K | 0.76

CCC=C[n+]1ccn(C)c1C.O=[N+]([O-])c1cn[n-]c1 + COCCOCCOCCOCCOC
100 kPa
Details | viscosity [mPa·s]
278.15 K, x1 = 0.601 | 267
278.15 K, x1 = 0.952 | 4300
283.15 K, x1 = 0.9 | 1510
288.15 K, x1 = 0.9 | 864
288.15 K, x1 = 0.952 | 1210
293.15 K, x1 = 0.601 | 87
298.15 K, x1 = 0.701 | 121
298.15 K, x1 = 0.952 | 439
303.15 K, x1 = 0.801 | 138
313.15 K, x1 = 0.9 | 117
323.15 K, x1 = 0.952 | 81

CCCCCCCC[P+](CC)(CC)CC.Cc1ncc([N+](=O)[O-])[n-]1 + COCCOCCOCCOCCOC
viscosity [mPa·s], 100 kPa
Details | 278.15 K | 283.15 K | 288.15 K | 293.15 K | 298.15 K | 303.15 K | 308.15 K | 313.15 K | 318.15 K | 323.15 K
x2 = 0 | 3660 | 2240 | 1410 | 920 | 623 | 435 | 313 | 231 | 174 | 135
x2 = 0.036 | 2730 | 1700 | 1090 | 722 | 495 | 350 | 255 | 189 | 145 | 113
x2 = 0.067 | 1990 | 1270 | 829 | 559 | 390 | 280 | 206 | 155 | 120 | 95
x2 = 0.115 | 1470 | 955 | 636 | 438 | 310 | 227 | 170 | 130 | 101 | 81
x2 = 0.233 | 651 | 446 | 311 | 223 | 166 | 126 | 98 | 78 | 62 | –
x2 = 0.3 | 375 | 262 | 187 | 137 | 103 | 80 | 64 | 51 | – | –
x2 = 0.399 | 200 | 145 | 107 | 81 | 64 | 50 | – | – | – | –
x2 = 0.5 | 113 | 86 | 66 | 51 | – | – | – | – | – | –
x2 = 0.598 | 62 | – | – | – | – | – | – | – | – | –

CCCCCC[n+]1ccn(C)c1C.O=S(=O)([N-]S(=O)(=O)C(F)(F)F)C(F)(F)F + COCCOCCOCCOCCOC
viscosity [mPa·s], 100 kPa
Details | 293.15 K | 298.15 K | 308.15 K
x2 = 0 | – | 129 | –
x2 = 0.102 | 135 | 103 | 64
x2 = 0.306 | 66 | 51 | –

CCO + COP(=O)([O-])OC.C[N+]1(CCO)CCCC1
Details | viscosity [mPa·s]
298.15 K, 100 kPa, x2 = 0 | 1.08

CCO + COP(=O)([O-])OC.Cn1cc[n+](C)c1
100 kPa, x2 = 0
Details | viscosity [mPa·s]
298.15 K | 1.08
308.15 K | 0.89
328.15 K | 0.646

CCO + CS(=O)(=O)[O-].C[N+](C)(CCO)CCO
101 kPa, x2 = 0
Details | viscosity [mPa·s]
298.15 K | 1.102
303.15 K | 1.002
308.15 K | 0.915
313.15 K | 0.837
318.15 K | 0.768
323.15 K | 0.706

CC(=O)[O-].CC[NH2+]CC + CS(C)=O
101 kPa
Details | electrical conductivity [S/m] | viscosity [mPa·s]
298.15 K, x1 = 0.0079 | 0.066 | –
298.15 K, x1 = 0.0285 | 0.157 | –
298.15 K, x1 = 0.0475 | 0.217 | –
298.15 K, x1 = 0.0697 | 0.282 | –
298.15 K, x1 = 0.0998 | 0.348 | –
298.15 K, x1 = 0.1 | – | 2.99
298.15 K, x1 = 0.199 | – | 3.72
298.15 K, x1 = 0.1997 | 0.44 | –
298.15 K, x1 = 0.299 | – | 5.59
298.15 K, x1 = 0.3011 | 0.492 | –
298.15 K, x1 = 0.3994 | 0.531 | –
298.15 K, x1 = 0.4 | – | 8.01
298.15 K, x1 = 0.5 | – | 11.94
298.15 K, x1 = 0.5008 | 0.459 | –
298.15 K, x1 = 0.601 | – | 15.88
298.15 K, x1 = 0.6022 | 0.433 | –
298.15 K, x1 = 0.682 | – | 21.1
298.15 K, x1 = 0.7005 | 0.394 | –
298.15 K, x1 = 0.798 | – | 32.6
298.15 K, x1 = 0.8019 | 0.367 | –
298.15 K, x1 = 0.899 | – | 44.2
298.15 K, x1 = 0.9017 | 0.335 | –
298.15 K, x2 = 0.005 | – | 58.3
298.15 K, x2 = 0.2023 | – | 13.67
298.15 K, x2 = 0.2814 | – | 12.66
298.15 K, x2 = 0.5897 | – | 8.7
298.15 K, x2 = 0.66 | – | 7.71
298.15 K, x2 = 0.7851 | – | 5.81
298.15 K, x2 = 0.971 | – | 2.53
303.15 K, x2 = 0.0253 | – | 13.36
303.15 K, x2 = 0.7253 | – | 5.92
303.15 K, x2 = 0.8406 | – | 4.41
303.15 K, x2 = 0.9248 | – | 3.13
308.15 K, x2 = 0.1535 | – | 10.52
308.15 K, x2 = 0.2814 | – | 9.46

CC[n+]1ccn(C)c1.CO[PH](=O)[O-] + CS(C)=O
298.1 K, 100 kPa
Details | electrical conductivity
x1 = 0.006 | 0.01 S/m
x1 = 0.01 | 0.13 S/m
x1 = 0.017 | 0.37 S/m and 0.45 S/m
x1 = 0.025 | 0.51 S/m and 0.68 S/m
x1 = 0.044 | 0.79 S/m
x1 = 0.059 | 0.93 S/m
x1 = 0.078 | 1.05 S/m
x1 = 0.123 | 1.15 S/m
x1 = 0.188 | 1.19 S/m
x1 = 0.267 | 1.13 S/m
x1 = 0.335 | 1.03 S/m
x1 = 0.453 | 0.88 S/m
x1 = 0.585 | 0.75 S/m
x1 = 0.763 | 0.59 S/m
x1 = 1 | 0.44 S/m

Reference: the CheMixHub ionic liquid set
